Laboratory results from patent US20100286093A1, “ANTI-INFLAMMATORY COMPOSITION CONTAINING DOCOSAHEXAENOYL LYSOPHOSPHATIDYLAMINE AS AN ACTIVE INGREDIENT” (The Industry & Academic Cooperation in Chungnam National …, priority 2009, published 2010).

Columns and labels:
[1] = test system: zymosan A induced plasma leakage; assay: Zymosan A induced plasma leakage in peritoneal fluid (Evans blue), intraperitoneal injection; assay type: in vivo, mice; details: i.p.
Method: The present inventors intraperitoneally injected docosahexaenoyl lysophosphatidylcholine or 17-HPDHA lysophosphatidylcholine (docosahexaenoyl lysophosphatidylcholine oxide) into mice at the concentration of 15˜150 μg/kg. The control group was injected with 50˜100 ul of saline. 2 Hours later, 0.5% Evans Blue dye solution (0.2 ml) was injected through tail vein, followed by intraperitoneal injection of 100 ul of zymosan A (1 mg/ml) dissolved in saline. 30 minutes later, the mice were slightly anesthetized with ether or fluorine, followed by neck dissection. 4 ml of ice-cold PBS was injected into abdominal cavity and peritoneal fluid was recovered by using a plastic syringe, followed by centrifugation (3,000 rpm, 10 minutes). Exudation of Evans blue was measured to evaluate anti-inflammatory effect.

[2] = test system: zymosan A induced plasma leakage; assay: Zymosan A induced plasma leakage in peritoneal fluid (Evans blue), intravenous injection; assay type: in vivo, mice
Method: To investigate inhibitory effect of docosahexaenoyl lysophosphatidylcholine on peritonitis induced by zymosan, the present inventors induced inflammation in abdominal cavity by injecting zymosan A (saccharomyces cerevisiae) (Sigma-Aldrich Corp, St. Louis, Mo., USA), and then administered lysophosphatidylcholine, followed by evaluation of anti-inflammatory effect. Particularly, SPF mice (6 weeks, male) were adapted for 12 hours and then raised in an animal laboratory at College of Pharmacy under 12/12 hour dark/light cycle. Then, the mice were used for intra-abdominal inflammatory response experiment. First, each experimental group was composed of 5˜10 mice, to which 10˜500 μg/kg of each lysophosphatidylcholine was injected through tail vein. The control group was injected with 50˜100 ul of saline. 30 minutes later, 0.5% Evans blue dye solution (0.2 ml) was injected through tail vein and then 100 ul of zymosan A (1 mg/ml) dissolved in saline was injected into abdominal cavity. 30 minutes after the administration, the mice were anesthetized lightly with ether or fluorine, followed by neck dissection. 4 ml of ice-cold PBS was injected into abdominal cavity and peritoneal fluid was recovered by using a plastic syringe, followed by centrifugation (3,000 rpm, 10 minutes). Supernatant was obtained from the centrifugation, with which exudation of Evans blue was measured by spectrophotometer at 620 nm to evaluate anti-inflammatory effect (Arita M, et al., Proc Natl Acad Sci USA. 2005 May 24; 102(21):7671-6; Takenaka M, et al., Biol Pharm Bull. 2005 July; 28(7):1291-3).
The present inventors measured time-dependent anti-inflammatory effect (inhibitory effect on zymosan A induced plasma leakage) of each lysophosphatidylcholine. Particularly, docosahexaenoyl lysophosphatidylcholine (50 μg/kg) was injected to mice through tail vein at different time intervals (15 minutes—120 minutes; […], 30 minutes, 60 minutes and 120 minutes before zymosan A administration). After administrating zymosan A ([…]) via intraperitoneal injection, Evans blue was treated, followed by measuring plasma leakage in peritoneal fluid.
Particularly, docosahexaenoyl lysophosphatidylcholine (50 μg/kg), docosahexaenoic acid (50 μg/kg) or 17-HPDHA lysophosphatidylcholine (17(S)-hydroperoxy-4,7,10,13,15,19-docosahexaenoyl lysophosphatidylcholine) were compared. Soybean LOX-1 (200 units/ml) was added in borax buffer (50 mM, pH 9.0) containing docosahexaenoyl lysophosphatidylcholine (20 uM), followed by reaction at 25° C. for 30 minutes, which was passed through C18 column (2×1 cm) and eluted with methanol (Huang L S, et al., J Agric Food Chem. 2008 Sep. 10; 56(17):7808-14)] (50 μg/kg) was treated to mice 30 minutes before zymosan A injection. 30 minutes later, plasma leakage in peritoneal fluid was measured.
The present inventors intravenously injected docosahexaenoyl lysophosphatidylethanolamine into mice at the concentration of 15˜150 μg/kg. 30 Min later, 100 ul of zymosan A(1 mg/ml) was treated thereto to induce inflammation in abdominal cavity. After administering 0.5% Evans blue, plasma leakage in peritoneal fluid was measured.

RAW 264.7 cells = assay: LPS induced NO generation in RAW 264.7 cells (Griess reagent); assay type: cell-based
From the text: Macrophages are known to play an important role in inflammatory response and host defense. When macrophages are activated by lipopolysaccharide (LPS), a huge amount of NO (nitric oxide) is generated, which is mediated by inducible nitric oxide synthase (iNOS).
Based on that, the present inventors observed how unsaturated fatty acid containing lysophosphatidylcholine (lysoPC) affected the generation of NO, the inflammation mediator, induced by LPS in RAW 264.7 cells. Particularly, RAW 264.7 cells (5×10^4/well) were pre-cultured with each polyunsaturated lysophosphatidylcholine; linoleoyl lysophosphatidylcholine, arachidonoyl lysophosphatidylcholine and docosahexaenoyl lysophosphatidylcholine [prepared by the co-treatment with diacyl phosphatidylcholine (Avanti Polar Lipids, Alabaster, Ala., USA) and phospholipase A2 (PLA2, Sigma-Aldrich Corp, St. Louis, Mo., USA) (Croset, M. et al., Biochem. J. 2000, 345, 61-67; Adachi, J. et al., Kobe. J. Med. Sci. 2006, 52, 127-140)] (0˜60 uM) at 37° C. for 2 hours. Then, LPS (1 μg/ml) was added thereto, followed by culture for 20 hours under the same conditions as the above. […] Then, OD540 was measured to measure NO generation (Green L C, et al., Anal Biochem. 1982 October; 126(1):131-8).

**Q.** With “17(S)-hydroperoxy-4,7,10,13,15,19-docosahexaenoyl lysophosphatidylcholine [17-HPDHA lysophosphatidylcholine]” as the compound, how does the “inhibitory effect on zymosan induced plasma leakage” value ([1]; 15 μg/kg or higher, 2 hours before zymosan A) read?
**A.** The value was “significant”.

**Q.** And the “effectiveness in comparison with docosahexaenoyl lysophosphatidylcholine” value ([1]; 15~150 μg/kg)?
**A.** The value was “somewhat more effective than docosahexaenoyl lysophosphatidylcholine”.

**Q.** And the “inhibition of zymosan induced plasma leakage, dose dependence” value ([1]; up to 150 μg/kg)?
**A.** The value was “dose-dependent”.

**Q.** What about the “inhibitory effect on plasma leakage (metabolite comparison)” value ([2]; 50 μg/kg, 30 minutes before zymosan A injection, compared to docosahexaenoyl lysophosphatidylcholine) of the same compound?
**A.** The value was “a greater inhibitory effect”.

**Q.** What does the source list for “docosahexaenoyl lysophosphatidylethanolamine”?
**A.** inhibitory effect on zymosan A induced plasma leakage ([2]; i.v., 50 μg/kg or higher, 30 min before zymosan A): significant inhibitory effect; inhibition of zymosan A induced plasma leakage, dose dependence ([2]; i.v., up to 150 μg/kg): inhibited zymosan A induced plasma leakage dose-dependently

**Q.** For `CCCCC/C=C\C/C=C\CCCCCCCC(=O)OC[C@@H](O)COP(=O)([O-])OCC[N+](C)(C)C` [linoleoyl lysophosphatidylcholine, reference compound], which “inhibitory effect on NO generation induced by LPS” value (RAW 264.7 cells; up to 60 uM) is on record?
**A.** Its value is “did not show any significant inhibitory effect”.

**Q.** What about the “inhibition of zymosan induced plasma leakage, dose dependence” value ([2]; i.v., up to 500 μg/kg) of the same compound?
**A.** The value was “did not show inhibitory effect”.

**Q.** Which “inhibition of NO generation induced by LPS” value (RAW 264.7 cells; 60 uM) does the source give for “arachidonoyl lysophosphatidylcholine [reference compound]” here?
**A.** Its value is no more than 20%.

**Q.** What about the “reduction of zymosan induced plasma leakage” value (“reduction” below) ([2]; 50 μg/kg i.v.) of the same compound?
**A.** Its value is “reduced plasma leakage significantly”.

**Q.** What about the “reduction” value ([2]; 150 μg/kg i.v.) of the same compound?
**A.** Its value is “more peculiar”.

**Q.** And the “reduction” value ([2]; 500 μg/kg i.v., versus 150 μg/kg)?
**A.** The value was “this effect was not increased any more”.
